According to patent US20220380829A1, “Method of Diagonosizing Pathogens and their Antimicrobial Susceptibility” (HANGZHOU DIAN MEDICAL LABORATORY CO., LTD., priority 2019, published 2022):
Starred links: 1 amine or outer side, 2 acyl side, 3 side chain; linkers in the order of their positions; H or OH if unused. Positions of bridges follow the written chain, without caps; N, C: chain ends. Non-standard residues stand in square brackets, D forms with d. Residues, ends and D or L forms follow the SMILES beside them. *: point of attachment. hTyr(3S-OH,4S-OH,3'-OSO3H) = N[C@H](C(=O)O)[C@H](O)[C@@H](O)c1ccc(O)c(OS(=O)(=O)O)c1; Orn(4R-OH,5R-OH) = O=C([C@H](C[C@@H](O)[C@@H](O)N[*:3])N[*:1])[*:2]; Pro(3S-OH,4S-Me) = C[C@H]1CN[C@H](C(=O)O)[C@H]1O; X1 = CCCCCOc1ccc(-c2cc(-c3ccc(C(=O)*)cc3)no2)cc1; Gln(3R-OH) = NC(=O)C[C@@H](O)[C@H](N)C(=O)O; Hyp = O=C(O)[C@@H]1C[C@@H](O)CN1

Experiments:
Format in all cases: cell-based
[1] = system: Candida albicans; assay: Broth microdilution (M27-A3, M27-S4), gold standard culture-based AST; conditions: for Results by broth microdilution method: R: number of resistant among 12 blinds; for Results by broth microdilution method: S: number of susceptible among 12 blinds
Method: Step 1. Sample collection and drug susceptibility verification: 120 clinical Candida albicans isolates were collected from 31 hospitals across china in a period between September 2015 and January 2019. All isolates were tested for drug susceptibility using broth microdilution method following the M27-A3 and M27-S4 guidelines of NCCLS, and the results were used as the gold standard (culture-based AST).

[2] = system: Acinetobacter baumannii; assay: VITEK2 Compact AST (AST-N335 cards), gold standard culture-based AST
Method: Step 1. Drug susceptibility verification: The Acinetobacter baumannii isolates were tested for drug susceptibility using bioMérieux Vitek2 Compact System and AST-N335 cards, and the results were used as the gold standard (culture-based AST).

[3] = system: Klebsiella pneumoniae; assay: VITEK2 Compact AST (AST-GN13/GN334 cards), gold standard culture-based AST; conditions: for Resistance profiles by VITEK2: R: number of resistant among 24 blinds; for Resistance profiles by VITEK2: S: number of susceptible among 24 blinds
From the text: Step 1. Sample collection and drug susceptibility verification: 240 clinical Klebsiella pneumoniae isolates were collected from 23 hospitals across china in a period between January 2018 and March 2019.

[4] = system: Staphylococcus aureus; assay: VITEK2 Compact AST (AST-P639 card), gold standard culture-based AST; conditions: for Resistance profiles by VITEK2: R: number of resistant among 22 blinds; for Resistance profiles by VITEK2: S: number of susceptible among 22 blinds
Method: Step 1. Sample collection and drug susceptibility verification: 160 clinical Staphylococcus aureus isolates were collected from 20 hospitals across china in a period between June 2018 and June 2019. All isolates were tested for drug susceptibility using bioMérieux Vitek2 Compact System and AST-P639 card, and specifically, and the results were used as the gold standard (culture-based AST).

[5] = system: Enterococcus faecalis; assay: VITEK2 Compact AST (AST-P639 cards), gold standard culture-based AST
[6] = system: Streptococcus pneumoniae; assay: VITEK2 Compact AST (AST-GP68 cards) with penicillin disc diffusion, gold standard culture-based AST
Method: Step 1. Drug susceptibility verification: The Streptococcus pneumoniae isolates were tested for drug susceptibility using bioMérieux Vitek2 Compact System and AST-GP68 cards, and specifically, the susceptibility of penicillin was double checked by disc diffusion method (OXOID, CT0043B), and the combined results were used as the gold standard (culture-based AST).
Step 1. Sample collection and drug susceptibility verification: 48 clinical Streptococcus pneumoniae isolates were collected from 18 hospitals across china in a period between May 2017 and October 2019. All isolates were tested for drug susceptibility using bioMérieux Vitek2 Compact System and AST-GP68 card, and specifically, the susceptibility of penicillin was double checked by disc diffusion method (OXOID, CT0043B), and the combined results were used as the gold standard (culture-based AST).

[7] = Resistance profile classification A
[8] = Resistance profile classification B
[9] = Resistance profile classification C
[10] = Resistance profile classification D
[11] = Resistance profile classification E
[12] = Resistance profile classification F
[13] = Resistance profile classification G
[14] = Resistance profile classification H
[15] = Resistance profile classification I
[16] = Resistance profile classification J
[17] = Resistance profile classification K
[18] = Resistance profile classification L
[19] = Resistance profile classification M
[20] = Resistance profile classification S

Nc1nc(=O)[nH]cc1F [5-Fluorocytosine]
Results by broth microdilution method: R [1]: 4
Results by broth microdilution method: S [1]: 8

C[C@@H]1[C@H](O)[C@@H](C)/C=C/C=C/C=C/C=C/C=C/C=C/C=C/[C@H](O[C@@H]2O[C@H](C)[C@@H](O)[C@H](N)[C@@H]2O)C[C@@H]2O[C@](O)(C[C@@H](O)C[C@@H](O)[C@H](O)CC[C@@H](O)C[C@@H](O)CC(=O)O[C@H]1C)C[C@H](O)[C@H]2C(=O)O [Amphotericin B]
Results by broth microdilution method: R [1]: 0
Results by broth microdilution method: S [1]: 12

CC[C@H](C)C[C@H](C)CCCCCCCCC(=O)N[C@H]1C[C@@H](O)[C@@H](NCCN)NC(=O)[C@@H]2[C@@H](O)CCN2C(=O)[C@H]([C@H](O)CCN)NC(=O)[C@H]([C@H](O)[C@@H](O)c2ccc(O)cc2)NC(=O)[C@@H]2C[C@@H](O)CN2C(=O)[C@H]([C@@H](C)O)NC1=O [Caspofungin]
Results by broth microdilution method: R [1]: 0
Results by broth microdilution method: S [1]: 12

OC(Cn1cncn1)(Cn1cncn1)c1ccc(F)cc1F [Fluconazole]
Results by broth microdilution method: R [1]: 2
Results by broth microdilution method: S [1]: 10

CCC(C)n1ncn(-c2ccc(N3CCN(c4ccc(OCC5COC(Cn6cncn6)(c6ccc(Cl)cc6Cl)O5)cc4)CC3)cc2)c1=O (stereo not shown) [Itraconazole]
Results by broth microdilution method: R [1]: 2
Results by broth microdilution method: S [1]: 10

CCCCCOc1ccc(-c2cc(-c3ccc(C(=O)N[C@H]4C[C@@H](O)[C@@H](O)NC(=O)[C@@H]5[C@@H](O)[C@@H](C)CN5C(=O)[C@H]([C@H](O)CC(N)=O)NC(=O)[C@H]([C@H](O)[C@@H](O)c5ccc(O)c(OS(=O)(=O)O)c5)NC(=O)[C@@H]5C[C@@H](O)CN5C(=O)[C@H]([C@@H](C)O)NC4=O)cc3)no2)cc1 [Micafungin] (X1-[Orn(4R-OH,5R-OH)]T[Hyp][hTyr(3S-OH,4S-OH,3'-OSO3H)][Gln(3R-OH)][Pro(3S-OH,4S-Me)]; lactam 1-C)
Results by broth microdilution method: R [1]: 0
Results by broth microdilution method: S [1]: 12

C[C@@H](c1ncncc1F)[C@](O)(Cn1cncn1)c1ccc(F)cc1F [Voriconazole]
Results by broth microdilution method: R [1]: 2
Results by broth microdilution method: S [1]: 10

CCN1CCN(C(=O)N[C@@H](C(=O)N[C@@H]2C(=O)N3[C@@H]2SC(C)(C)[C@@H]3C(=O)O)c2ccccc2)C(=O)C1=O [pipercillin, piperacillin]
Suscepibility of Acinetobacter baumannii to 12 antibacterial drugs [2, 7]: R
Suscepibility of Acinetobacter baumannii to 12 antibacterial drugs [2, 8]: R
Suscepibility of Acinetobacter baumannii to 12 antibacterial drugs [2, 9]: R
Suscepibility of Acinetobacter baumannii to 12 antibacterial drugs [2, 10]: R
Suscepibility of Acinetobacter baumannii to 12 antibacterial drugs [2, 11]: R
Suscepibility of Acinetobacter baumannii to 12 antibacterial drugs [2, 12]: R
Suscepibility of Acinetobacter baumannii to 12 antibacterial drugs [2, 13]: R
Suscepibility of Acinetobacter baumannii to 12 antibacterial drugs [2, 14]: R
Suscepibility of Acinetobacter baumannii to 12 antibacterial drugs [2, 15]: R
Suscepibility of Acinetobacter baumannii to 12 antibacterial drugs [2, 16]: R
Suscepibility of Acinetobacter baumannii to 12 antibacterial drugs [2, 17]: R
Suscepibility of Acinetobacter baumannii to 12 antibacterial drugs [2, 18]: R
Suscepibility of Acinetobacter baumannii to 12 antibacterial drugs [2, 19]: R
Suscepibility of Acinetobacter baumannii to 12 antibacterial drugs ([2]; Resistance profile classification N): R
Suscepibility of Acinetobacter baumannii to 12 antibacterial drugs ([2]; Resistance profile classification O): S
Suscepibility of Acinetobacter baumannii to 12 antibacterial drugs ([2]; Resistance profile classification P): S
Suscepibility of Acinetobacter baumannii to 12 antibacterial drugs ([2]; Resistance profile classification Q): S
Suscepibility of Acinetobacter baumannii to 12 antibacterial drugs ([2]; Resistance profile classification R): S
Suscepibility of Acinetobacter baumannii to 12 antibacterial drugs [2, 20]: S

Amoxicillin-clavulanate
Resistance profiles by VITEK2: R [3]: 16
Resistance profiles by VITEK2: S [3]: 8

Ampicillin-sulbactam
Resistance profiles by VITEK2: R [3]: 15
Resistance profiles by VITEK2: S [3]: 9

Cefoperazone-sulbactam
Resistance profiles by VITEK2: R [3]: 13
Resistance profiles by VITEK2: S [3]: 11

Gentamicin
Resistance profiles by VITEK2: R [4]: 7
Resistance profiles by VITEK2: S [4]: 15
Resistance profiles by VITEK2: R [3]: 12
Resistance profiles by VITEK2: S [3]: 12

Piperacillin-tazobactam
Resistance profiles by VITEK2: R [3]: 13
Resistance profiles by VITEK2: S [3]: 11

Teicoplanin
Resistance profiles by VITEK2: R [4]: 0
Resistance profiles by VITEK2: S [4]: 22

penicillin
Susceptibility of Emterococcus faecalis to 11 antibacterial drugs [5, 7]: R
Susceptibility of Emterococcus faecalis to 11 antibacterial drugs [5, 8]: R
Susceptibility of Emterococcus faecalis to 11 antibacterial drugs [5, 9]: R
Susceptibility of Emterococcus faecalis to 11 antibacterial drugs [5, 10]: R
Susceptibility of Emterococcus faecalis to 11 antibacterial drugs ([5]; Resistance profile classification F (first line so labelled, r12)): R
Susceptibility of Emterococcus faecalis to 11 antibacterial drugs ([5]; Resistance profile classification F (second line so labelled, r13)): R
Susceptibility of Emterococcus faecalis to 11 antibacterial drugs [5, 13]: S
Susceptibility of Emterococcus faecalis to 11 antibacterial drugs [5, 14]: S
Susceptibility of Emterococcus faecalis to 11 antibacterial drugs [5, 15]: S
Susceptibility of Emterococcus faecalis to 11 antibacterial drugs [5, 16]: S
Susceptibility of Emterococcus faecalis to 11 antibacterial drugs [5, 17]: S
Susceptibility of Emterococcus faecalis to 11 antibacterial drugs [5, 18]: S
Susceptibility of Emterococcus faecalis to 11 antibacterial drugs [5, 19]: S
Susceptibility of Emterococcus faecalis to 11 antibacterial drugs [5, 20]: S
Resistance profiles by VITEK2: R [4]: 20
Resistance profiles by VITEK2: S [4]: 2
Blind 1 by AST ([6]; Blind 1): S
Susceptibility of Streptococcus pneumoniae to 14 antibacterial drugs [6, 7]: R
Susceptibility of Streptococcus pneumoniae to 14 antibacterial drugs [6, 8]: R
Susceptibility of Streptococcus pneumoniae to 14 antibacterial drugs [6, 9]: R
Susceptibility of Streptococcus pneumoniae to 14 antibacterial drugs [6, 10]: R
Susceptibility of Streptococcus pneumoniae to 14 antibacterial drugs [6, 11]: R
Susceptibility of Streptococcus pneumoniae to 14 antibacterial drugs [6, 12]: R
Susceptibility of Streptococcus pneumoniae to 14 antibacterial drugs [6, 13]: S
Susceptibility of Streptococcus pneumoniae to 14 antibacterial drugs [6, 14]: S
Susceptibility of Streptococcus pneumoniae to 14 antibacterial drugs [6, 15]: S
Susceptibility of Streptococcus pneumoniae to 14 antibacterial drugs [6, 16]: S
Susceptibility of Streptococcus pneumoniae to 14 antibacterial drugs [6, 20]: S
blind 2 by AST ([6]; blind 2): R
